pIC50: −log10 of the molar value.
Target: CXCR3 (Macaca fascicularis, UniProt A0A2K5UV19)
Assay: functional cellular assay measuring calcium flux in CXCR3 transfected cells (block of CXCR3/IP-10 interaction)
Format: cell-based, Cyno
Conditions: IP-10 induced intracellular calcium flux; Cyno-CHO cells stably expressing recombinant CXCR3 and G-alpha-16; IP-10 at EC80; read-out: IC50
Procedure, shortened: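 Cyno-CHO cells stably expressing CXCR3 and G-alpha-16, loaded with Ca-4 dye in HBSS/10 mM HEPES pH 7.4 with 2 mM probenecid for 1 h at 37° C. Compound (final 10 microM) preincubated 15 min at room temperature, then IP-10 at EC80 added; calcium flux read at 480/540 nm.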

Chain of CXCR3 (A0A2K5UV19 entry or part of it): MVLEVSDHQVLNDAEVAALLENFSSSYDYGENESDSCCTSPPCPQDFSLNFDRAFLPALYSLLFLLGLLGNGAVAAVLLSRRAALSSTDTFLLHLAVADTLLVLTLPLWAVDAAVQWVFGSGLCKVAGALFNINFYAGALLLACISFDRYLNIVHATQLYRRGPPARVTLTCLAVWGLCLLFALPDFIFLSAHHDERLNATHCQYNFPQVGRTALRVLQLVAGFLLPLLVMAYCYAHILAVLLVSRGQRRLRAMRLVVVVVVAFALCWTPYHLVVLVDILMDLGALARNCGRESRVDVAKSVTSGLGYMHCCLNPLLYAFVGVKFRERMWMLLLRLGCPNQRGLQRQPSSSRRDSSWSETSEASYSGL

Structure (SMILES) | pIC50
CC1CN(c2ccc(C(F)(F)F)cc2-c2cnc(S(C)(=O)=O)nc2)CCN1C(=O)Cn1cnc2cccnc21 (stereo not drawn) [2-(3H-imidazo[4,5-b]pyridin-3-yl)-1-(2-methyl-4-{2-[2-(methylsulfonyl)pyrimidin-5-yl]-4-(trifluoromethyl)phenyl}piperazin-1-yl)ethanone] | 6.72
CC1CN(c2ccccc2-c2cnc(S(C)(=O)=O)nc2)CCN1C(=O)Cn1cnc2cccnc21 (stereo not drawn) [2-(3H-imidazo[4,5-b]pyridin-3-yl)-1-(2-methyl-4-{2-[2-(methylsulfonyl)pyrimidin-5-yl]phenyl}piperazin-1-yl)ethanone] | 6.36
COc1ncc(-c2ccccc2N2CCN(C(=O)Cn3ccc4c(Cl)ncnc43)CC2)cn1 [2-(4-Chloro-pyrrolo[2,3-d]pyrimidin-7-yl)-1-{4-[2-(2-methoxy-pyrimidin-5-yl)-phenyl]-piperazin-1-yl}-ethanone] | 7.32
COc1ncc(-c2ccccc2N2CCN(C(=O)Cn3ccc4ccnc(Cl)c43)CC2)cn1 [2-(7-Chloro-pyrrolo[2,3-c]pyridin-1-yl)-1-{4-[2-(2-methoxy-pyrimidin-5-yl)-phenyl]-piperazin-1-yl}-ethanone] | 7.80
COc1ncc(-c2ccccc2N2CCN(C(=O)Cn3ncc4ccccc43)CC2)cn1 [2-Indazol-1-yl-1-{4-[2-(2-methoxy-pyrimidin-5-yl)-phenyl]-piperazin-1-yl}-ethanone] | 7.46
COc1ncc(-c2ccccc2N2CCN(C(=O)Cn3cc4ccccc4n3)CC2)cn1 [2-Indazol-2-yl-1-{4-[2-(2-methoxy-pyrimidin-5-yl)-phenyl]-piperazin-1-yl}-ethanone] | 7.55
COc1ncc(-c2ccccc2N2CCN(C(=O)Cn3ccc4ccccc43)CC2)cn1 [2-Indol-1-yl-1-{4-[2-(2-methoxy-pyrimidin-5-yl)-phenyl]-piperazin-1-yl}-ethanone] | 7.36
CC1CN(c2ccc(C(F)(F)F)cc2-c2cnc(S(C)(=O)=O)nc2)CCN1C(=O)CN1Cc2ccccc2C1=O (stereo not drawn) [2-[2-(2-methyl-4-{2-[2-(methylsulfonyl)pyrimidin-5-yl]-4-(trifluoromethyl)phenyl}piperazin-1-yl)-2-oxoethyl]-2,3-dihydro-1H-isoindol-1-one] | 7.00
CC1CN(c2ccccc2-c2cnc(S(C)(=O)=O)nc2)CCN1C(=O)CN1Cc2ccccc2C1=O (stereo not drawn) [2-[2-(2-methyl-4-{2-[2-(methylsulfonyl)pyrimidin-5-yl]phenyl}piperazin-1-yl)-2-oxoethyl]-2,3-dihydro-1H-isoindol-1-one] | 6.53
CN1CCN(c2ncc(-c3cc(F)ccc3N3CCN(C(=O)CN4Cc5ccccc5C4=O)CC3)cn2)CC1 [2-[2-(4-{4-fluoro-2-[2-(4-methylpiperazin-1-yl)pyrimidin-5-yl]phenyl}piperazin-1-yl)-2-oxoethyl]-2,3-dihydro-1H-isoindol-1-one] | 7.59
CC1CN(c2ccc(F)cc2-c2cnc(S(C)(=O)=O)nc2)CCN1C(=O)CN1Cc2ccccc2C1=O (stereo not drawn) [2-[2-(4-{4-fluoro-2-[2-(methylsulfonyl)pyrimidin-5-yl]phenyl}-2-methylpiperazin-1-yl)-2-oxoethyl]-2,3-dihydro-1H-isoindol-1-one] | 6.61
CS(=O)(=O)c1ncc(-c2cc(F)ccc2N2CCN(C(=O)CN3Cc4ccccc4C3=O)CC2)cn1 [2-[2-(4-{4-fluoro-2-[2-(methylsulfonyl)pyrimidin-5-yl]phenyl}piperazin-1-yl)-2-oxoethyl]-2,3-dihydro-1H-isoindol-1-one] | 6.60
O=C(CN1Cc2ccccc2C1=O)N1CCN(c2ccc(F)cc2-c2cnc(N3CCOCC3)nc2)CC1 [2-[2-(4-{4-fluoro-2-[2-(morpholin-4-yl)pyrimidin-5-yl]phenyl}piperazin-1-yl)-2-oxoethyl]-2,3-dihydro-1H-isoindol-1-one] | 7.64

Stronger by pIC50, values ahead:

pIC50 | Structure (SMILES)
7.96 | Cc1cc(C)n(CC(=O)N2CCN(c3ccc(F)cc3-c3cnc(N4CCC(S(C)(=O)=O)CC4)nc3)CC2)n1 [2-(3,5-dimethyl-1H-pyrazol-1-yl)-1-[4-(4-fluoro-2-{2-[4-(methylsulfonyl)piperidin-1-yl]pyrimidin-5-yl}phenyl)piperazin-1-yl]ethanone]
8.15 | Cc1cc(C)n(CC(=O)N2CCN(c3ccc(C(F)(F)F)cc3-c3cnc(N4CCC(S(C)(=O)=O)CC4)nc3)CC2C)n1 (stereo not drawn) [2-(3,5-dimethyl-1H-pyrazol-1-yl)-1-{2-methyl-4-[2-{2-[4-(methylsulfonyl)piperidin-1-yl]pyrimidin-5-yl}-4-(trifluoromethyl)phenyl]piperazin-1-yl}ethanone]
7.85 | CC1CN(c2ccccc2-c2cnc(N3CCC(S(C)(=O)=O)CC3)nc2)CCN1C(=O)Cn1cnc2cccnc21 (stereo not drawn) [2-(3H-imidazo[4,5-b]pyridin-3-yl)-1-[2-methyl-4-(2-{2-[4-(methylsulfonyl)piperidin-1-yl]pyrimidin-5-yl}phenyl)piperazin-1-yl]ethanone]
8.15 | CC1CN(c2ccc(C(F)(F)F)cc2-c2cnc(N3CCC(S(C)(=O)=O)CC3)nc2)CCN1C(=O)Cn1cnc2cccnc21 (stereo not drawn) [2-(3H-imidazo[4,5-b]pyridin-3-yl)-1-{2-methyl-4-[2-{2-[4-(methylsulfonyl)piperidin-1-yl]pyrimidin-5-yl}-4-(trifluoromethyl)phenyl]piperazin-1-yl}ethanone]
8.00 | COc1ncc(-c2ccccc2N2CCN(C(=O)Cn3nc(C)c(Cl)c3C)CC2)cn1 [2-(4-Chloro-3,5-dimethyl-pyrazol-1-yl)-1-{4-[2-(2-methoxy-pyrimidin-5-yl)-phenyl]-piperazin-1-yl}-ethanone]
8.10 | COc1ncc(-c2ccccc2N2CCN(C(=O)Cn3ccc4cc(F)cnc43)CC2)cn1 [2-(5-Fluoro-pyrrolo[2,3-b]pyridin-1-yl)-1-{4-[2-(2-methoxy-pyrimidin-5-yl)-phenyl]-piperazin-1-yl}-ethanone]
7.82 | COc1ncc(-c2ccccc2N2CCN(C(=O)Cn3cnc4cccnc43)CC2)cn1 [2-Imidazo[4,5-b]pyridin-3-yl-1-{4-[2-(2-methoxy-pyrimidin-5-yl)-phenyl]-piperazin-1-yl}-ethanone]
8.05 | CC1CN(c2ccc(C(F)(F)F)cc2-c2cnc(N3CCC(O)CC3)nc2)CCN1C(=O)CN1Cc2ccccc2C1=O (stereo not drawn) [2-[2-(4-{2-[2-(4-hydroxypiperidin-1-yl)pyrimidin-5-yl]-4-(trifluoromethyl)phenyl}-2-methylpiperazin-1-yl)-2-oxoethyl]-2,3-dihydro-1H-isoindol-1-one]
8.00 | CC1CN(c2ccccc2-c2cnc(N3CCC(O)CC3)nc2)CCN1C(=O)CN1Cc2ccccc2C1=O (stereo not drawn) [2-[2-(4-{2-[2-(4-hydroxypiperidin-1-yl)pyrimidin-5-yl]phenyl}-2-methylpiperazin-1-yl)-2-oxoethyl]-2,3-dihydro-1H-isoindol-1-one]
8.05 | O=C(CN1Cc2ccccc2C1=O)N1CCN(c2ccc(F)cc2-c2cnc(N3CCC(O)CC3)nc2)CC1 [2-[2-(4-{4-fluoro-2-[2-(4-hydroxypiperidin-1-yl)pyrimidin-5-yl]phenyl}piperazin-1-yl)-2-oxoethyl]-2,3-dihydro-1H-isoindol-1-one]
7.82 | O=C(CN1Cc2ccccc2C1=O)N1CCN(c2ccc(F)cc2-c2cnc(N3CCCC3)nc2)CC1 [2-[2-(4-{4-fluoro-2-[2-(pyrrolidin-1-yl)pyrimidin-5-yl]phenyl}piperazin-1-yl)-2-oxoethyl]-2,3-dihydro-1H-isoindol-1-one]

— patent US8450317B2, “CXCR3 receptor antagonists” (Boehringer Ingelheim International GmbH, priority 2009, dated 2013)
